# According to patent publication US20230355617A1, “SMALL MOLECULE INHIBITORS OF LEMUR TYROSINE KINASE 3” (The University of Sussex, priority 2020, published 2023):
# Read-outs that look alike come from different tables or passages of the source. Where a SMILES comes first, the peptide text is derived from it. The star is where a group is joined. Cbz = O=C(OCc1ccccc1)*
# Experiments:
# FDCP1-parental = test: FDCP1 cell-based model, parental cells; parameters: species or system murine
# LMTK3 [1] = target: T1, LMTK3 (Homo sapiens, UniProt Q96Q04); test: 32P γ-ATP in vitro kinase assay, phosphorylation of HSP27 by LMTK3; assay type: biochemical; details: in vitro kinase assay; read-out: Approximate IC50
# T1 construct: The wt kinase domain of LMTK3 (aa 134 to aa 444) was cloned into pOPINEneo; made in house; host or cells: Spodoptera frugiperda Sf9 (baculovirus)
# T1 sequence (Q96Q04 105-415): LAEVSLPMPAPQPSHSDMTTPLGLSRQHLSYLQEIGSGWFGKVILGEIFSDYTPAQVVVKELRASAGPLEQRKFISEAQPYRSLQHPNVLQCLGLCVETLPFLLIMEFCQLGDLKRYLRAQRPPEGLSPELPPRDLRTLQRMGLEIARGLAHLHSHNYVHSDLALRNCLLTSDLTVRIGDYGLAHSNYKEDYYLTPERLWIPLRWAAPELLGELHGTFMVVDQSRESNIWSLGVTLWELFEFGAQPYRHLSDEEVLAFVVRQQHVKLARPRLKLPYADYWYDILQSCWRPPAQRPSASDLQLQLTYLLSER
# LMTK3 [2] = target: T2, LMTK3 (Homo sapiens, UniProt Q96Q04); test: Western blotting of LMTK3 protein in BC cell lines; assay type: cell-based
# T2 construct: endogenous in cells; host or cells: MCF7, T47D, MDA-MB-231
# T2 sequence (Q96Q04 21-1460): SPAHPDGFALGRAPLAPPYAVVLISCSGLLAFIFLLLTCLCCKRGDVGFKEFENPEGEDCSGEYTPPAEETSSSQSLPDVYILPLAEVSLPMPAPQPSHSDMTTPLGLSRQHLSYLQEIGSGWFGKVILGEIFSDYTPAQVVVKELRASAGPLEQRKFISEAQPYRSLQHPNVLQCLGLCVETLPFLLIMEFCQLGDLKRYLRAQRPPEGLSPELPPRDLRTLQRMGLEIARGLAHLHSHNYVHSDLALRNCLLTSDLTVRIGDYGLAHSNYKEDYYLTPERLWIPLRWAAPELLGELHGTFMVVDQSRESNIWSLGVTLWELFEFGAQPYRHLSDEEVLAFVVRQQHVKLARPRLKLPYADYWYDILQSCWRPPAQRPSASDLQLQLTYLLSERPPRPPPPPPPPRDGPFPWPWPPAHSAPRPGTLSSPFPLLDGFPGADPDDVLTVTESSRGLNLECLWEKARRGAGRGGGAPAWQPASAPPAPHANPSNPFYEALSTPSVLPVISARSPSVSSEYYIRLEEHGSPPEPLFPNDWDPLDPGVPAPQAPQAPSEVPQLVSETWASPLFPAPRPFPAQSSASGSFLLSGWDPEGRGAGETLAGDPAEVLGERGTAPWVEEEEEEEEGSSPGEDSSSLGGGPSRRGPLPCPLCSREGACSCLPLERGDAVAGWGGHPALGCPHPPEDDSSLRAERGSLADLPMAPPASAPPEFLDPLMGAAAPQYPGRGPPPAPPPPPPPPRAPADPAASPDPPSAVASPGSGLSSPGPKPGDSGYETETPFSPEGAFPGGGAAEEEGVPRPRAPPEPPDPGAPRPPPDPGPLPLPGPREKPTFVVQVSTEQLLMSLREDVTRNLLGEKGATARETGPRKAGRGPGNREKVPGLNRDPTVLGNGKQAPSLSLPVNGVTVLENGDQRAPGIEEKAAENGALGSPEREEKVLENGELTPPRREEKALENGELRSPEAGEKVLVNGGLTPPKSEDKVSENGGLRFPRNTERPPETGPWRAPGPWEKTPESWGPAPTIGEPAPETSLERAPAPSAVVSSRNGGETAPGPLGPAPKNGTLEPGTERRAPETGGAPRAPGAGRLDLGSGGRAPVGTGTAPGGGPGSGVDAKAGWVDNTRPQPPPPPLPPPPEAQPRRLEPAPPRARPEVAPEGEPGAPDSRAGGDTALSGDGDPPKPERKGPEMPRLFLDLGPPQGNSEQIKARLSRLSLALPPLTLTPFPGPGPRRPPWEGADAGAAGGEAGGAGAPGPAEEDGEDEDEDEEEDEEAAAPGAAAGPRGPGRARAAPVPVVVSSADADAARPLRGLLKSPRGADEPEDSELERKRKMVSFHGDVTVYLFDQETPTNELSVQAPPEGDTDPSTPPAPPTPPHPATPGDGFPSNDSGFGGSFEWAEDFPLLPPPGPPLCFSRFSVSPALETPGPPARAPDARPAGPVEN
# ERα = test: Western blotting of ERα protein in BC cell lines; assay type: cell-based, human; details: MCF7, T47D, MDA-MB-231
# [3] = Pharmacokinetics after single IV, IP or PO dose; assay type: in vivo, mice
compound,measurement,setting,value
Cc1ccc(-c2ccc3ncc(-c4cccc(OC(F)(F)F)c4)n3n2)cc1,IC50,"FDCP1-parental; Mus musculus, FDC-P1; read-out: FDCP1-parental IC50",> 10 µM
FC(F)(F)Oc1cccc(-c2cnc3ccc(-c4ccccn4)nn23)c1 [Compound 337-1],IC50,LMTK3 [1],0.4 µM
FC(F)(F)Oc1cccc(-c2cnc3ccc(Cl)nn23)c1,IC50,"FDCP1-parental; Mus musculus, FDC-P1, read-out: FDCP1-parental IC50",> 10 µM
"FC(F)(F)Oc1cccc(-c2cnc3ccc(-c4ccncc4)nn23)c1 [Compound C28, 6-(Pyridin-4-yl)-3-(3-(trifluoromethoxy)phenyl)imidazo[1,2-b]pyridazine]",inhibition of LMTK3 protein levels in cancer cell lines,"LMTK3 [2]; MCF7, T47D, MDA-MB-231",best inhibitor
same,LMTK3 protein levels,"LMTK3 [2]; MCF7, T47D, MDA-MB-231, increasing concentrations, different time points",time and dose-dependent degradation of LMTK3
same,LMTK3 ubiquitination,"LMTK3 [2]; MCF7, 10 μM, 24 h",increased LMTK3 ubiquitination
same,ERα protein levels,ERα,decreased protein levels of ERα
same,Cmax,[3]; IP 10 mg/kg,839 ng/mL
same,T1/2,[3]; IP 10 mg/kg,~59 min
same,Cmax,[3]; IV 1 mg/kg,185 ng/mL
same,T1/2,[3]; IV 5 mg/kg,~10 min
same,lethality of IV dose,[3]; IV 5 mg/kg,lethal for some mice
same,Cmax,"[3]; IV 5 mg/kg, plasma",1533 ng/mL
same,time of peak concentration,"[3]; IV 5 mg/kg, plasma",5 min
same,Cmax,[3]; PO,632 ng/mL
same,T1/2,[3]; PO,~62 min
same,peroral bioavailability (F),[3]; based on incomplete data from 5 mg/kg IV group,54%
"CC(C)C[C@@H](C=O)NC(=O)[C@H](CC(C)C)NC(=O)[C@H](CC(C)C)NC(=O)OCc1ccccc1 [MG132, reference compound] (Cbz-Leu-Leu-Leu-aldehyde)",effect on C28-induced downregulation of LMTK3,"LMTK3 [2]; 10 μM MG132 4 h, then 10 μM C28 24 h",able to prevent C28-induced downregulation of LMTK3
